Results reported in the NIST ThermoML archive (doi:10.1021/acs.jced.7b00002).
Numbers after ± are expanded uncertainties.

Experiment: xn = mol fraction of the nth substance listed
Settings: 97.6 kPa, Liquid; for viscosity: Capillary tube (Ostwald / Ubbelohde) method; for mass density: Vibrating tube method

CCCCCCCC[n+]1ccn(C)c1.[Cl-] [1-methyl-3-octylimidazolium chloride] + C[S+](C)[O-]
Settings | mass density [kg/m3] | viscosity [mPa·s]
303.15 K, x1 = 0.13 | 1067.88 ± 2.2 | 6.85
303.15 K, x1 = 0.253 | 1051.57 ± 2.1 | 24.14
303.15 K, x1 = 0.338 | 1042.77 ± 2.1 | 55.12
303.15 K, x1 = 0.439 | 1034.29 ± 2.1 | 143.43
303.15 K, x1 = 0.574 | 1025.26 ± 2.1 | 371.36
303.15 K, x1 = 0.75 | 1015.41 ± 2.1 | 1084.7
303.15 K, x1 = 0.862 | 1011.18 ± 2.1 | 3235.6
303.15 K, x1 = 1 | 1006.2 ± 2.2 | 7339.7
308.15 K, x1 = 0.13 | 1063.71 ± 2.1 | 6
308.15 K, x1 = 0.253 | 1047.84 ± 2.1 | 19.97
308.15 K, x1 = 0.338 | 1039.2 ± 2.1 | 43.8
308.15 K, x1 = 0.439 | 1030.91 ± 2.1 | 107.7
308.15 K, x1 = 0.574 | 1022.09 ± 2.1 | 264.22
308.15 K, x1 = 0.75 | 1012.38 ± 2.1 | 742.47
308.15 K, x1 = 0.862 | 1008.24 ± 2.1 | 2150.9
308.15 K, x1 = 1 | 1003.33 ± 2.1 | 4272.9
313.15 K, x1 = 0.13 | 1059.55 ± 2.1 | 5.24
313.15 K, x1 = 0.253 | 1044.09 ± 2.1 | 16.54
313.15 K, x1 = 0.338 | 1035.65 ± 2.1 | 34.98
313.15 K, x1 = 0.439 | 1027.54 ± 2.1 | 82.42
313.15 K, x1 = 0.574 | 1018.92 ± 2.1 | 192.92
313.15 K, x1 = 0.75 | 1009.41 ± 2.1 | 508.33
313.15 K, x1 = 0.862 | 1005.31 ± 2.1 | 1404.4
313.15 K, x1 = 1 | 1000.48 ± 2.1 | 2766.9
318.15 K, x1 = 0.13 | 1055.41 ± 2.1 | 4.62
318.15 K, x1 = 0.253 | 1040.39 ± 2.1 | 13.89
318.15 K, x1 = 0.338 | 1032.11 ± 2.1 | 28.15
318.15 K, x1 = 0.439 | 1024.18 ± 2.1 | 63.95
318.15 K, x1 = 0.574 | 1015.75 ± 2.1 | 143.95
318.15 K, x1 = 0.75 | 1006.46 ± 2.1 | 363.38
318.15 K, x1 = 0.862 | 1002.4 ± 2.1 | 943.52
318.15 K, x1 = 1 | 997.64 ± 2.1 | 1788.6
323.15 K, x1 = 0.13 | 1051.26 ± 2.1 | 4.1
323.15 K, x1 = 0.253 | 1036.65 ± 2.1 | 11.8
323.15 K, x1 = 0.338 | 1028.58 ± 2.1 | 23.25
323.15 K, x1 = 0.439 | 1020.83 ± 2.1 | 50.83
323.15 K, x1 = 0.574 | 1012.58 ± 2.1 | 109.49
323.15 K, x1 = 0.75 | 1003.51 ± 2.1 | 264.93
323.15 K, x1 = 0.862 | 999.47 ± 2.1 | 653.9
323.15 K, x1 = 1 | 994.82 ± 2.1 | 1198.7
328.15 K, x1 = 0.13 | – | 3.67
328.15 K, x1 = 0.253 | – | 10.12
328.15 K, x1 = 0.338 | – | 19.36
328.15 K, x1 = 0.439 | – | 41.01
328.15 K, x1 = 0.574 | – | 84.97
328.15 K, x1 = 0.75 | – | 197.17
328.15 K, x1 = 0.862 | – | 466.77
328.15 K, x1 = 1 | – | 828.3
